Measured values published in patent US4820834A, “Benzodiazepine analogs” (priority 1987, dated 1989).
Like-named read-outs stand apart in the source and are kept apart here.

Experiments:
[1] = target: T1, CCK receptor (pancreas) (Rattus norvegicus, UniProt P30551); assay: CCK Receptor Binding (Pancreas): inhibition of ^125 I-CCK-33 binding; set-up: species or system Male Sprague-Dawley rats; settings: rat pancreas membranes, ^125 I-CCK-33, 37° C., 30 minutes
T1 construct: The whole pancreas was dissected free of fat tissue and was homogenized; from tissue; host or cells: rat pancreas membranes (Sprague-Dawley)
T1 sequence (P30551 1-444): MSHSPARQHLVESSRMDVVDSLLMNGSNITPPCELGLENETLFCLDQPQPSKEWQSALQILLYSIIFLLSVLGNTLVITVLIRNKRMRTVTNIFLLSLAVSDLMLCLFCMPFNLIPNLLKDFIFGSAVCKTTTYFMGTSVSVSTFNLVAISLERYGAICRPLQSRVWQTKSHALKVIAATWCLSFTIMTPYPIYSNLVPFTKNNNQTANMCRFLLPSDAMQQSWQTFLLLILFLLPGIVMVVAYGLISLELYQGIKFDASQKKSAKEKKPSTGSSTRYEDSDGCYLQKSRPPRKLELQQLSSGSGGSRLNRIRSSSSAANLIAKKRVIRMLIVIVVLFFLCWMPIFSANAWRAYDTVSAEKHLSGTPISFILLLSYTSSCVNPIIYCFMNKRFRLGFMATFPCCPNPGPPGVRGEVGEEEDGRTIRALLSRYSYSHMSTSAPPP
Procedure, shortened: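 Rat (male Sprague-Dawley) pancreatic membranes in 50 mM Tris HCl pH 7.7 with DTT, bacitracin, PMSF and o-phenanthroline; ^125I-Bolton Hunter-labelled CCK-33 as radioligand. Incubation 30 min at 37° C, separation by centrifugation, pellet gamma-counted; Scatchard analysis by diluting ^125I-CCK-33 with increasing CCK-33.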

[2] = target: T2, CCK receptor (brain, cerebral cortex) (Cavia porcellus, UniProt H0VZC5); assay: biochemical; format: binding, Male Hartley guinea pigs; settings: guinea pig cerebral cortex, ^125 I-CCK-33, 25° C., 2 hours
T2 construct: Cerebral cortex was dissected and used as a receptor source; from tissue; host or cells: guinea pig cerebral cortex membranes (male Hartley)
T2 sequence (H0VZC5 1-426): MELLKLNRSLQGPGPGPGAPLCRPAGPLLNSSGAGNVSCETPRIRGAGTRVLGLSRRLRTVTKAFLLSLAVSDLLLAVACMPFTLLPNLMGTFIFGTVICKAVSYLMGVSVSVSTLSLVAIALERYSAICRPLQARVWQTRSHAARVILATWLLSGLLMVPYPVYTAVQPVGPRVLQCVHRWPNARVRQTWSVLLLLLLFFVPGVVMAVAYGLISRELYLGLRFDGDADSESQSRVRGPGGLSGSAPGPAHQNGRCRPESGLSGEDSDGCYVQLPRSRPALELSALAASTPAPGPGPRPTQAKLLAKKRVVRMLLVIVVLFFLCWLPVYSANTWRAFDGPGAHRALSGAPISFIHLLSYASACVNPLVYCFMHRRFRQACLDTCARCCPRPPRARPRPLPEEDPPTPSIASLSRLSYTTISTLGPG
Procedure, shortened: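 Guinea pig cerebral cortex homogenate as receptor source, with radiolabeled CCK-33 in HEPES buffer containing MgCl2, bacitracin, EGTA and 0.4% BSA. Incubation 2 h at 25°C; bound ligand pelleted by centrifugation and gamma-counted.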

[3] = target: T3, Gastrin receptor (gastric glands) (Cavia porcellus, UniProt H0VZC5); assay: Gastrin Receptor Binding in Guinea Pig Gastric Glands; set-up: species or system guinea pig (male Hartley); settings: 25° C., 30 minutes
T3 construct: The washed guinea pig gastric glands prepared as above were resuspended; from tissue; host or cells: guinea pig gastric mucosal glands (male Hartley)
T3 sequence (H0VZC5 1-426): T2 sequence (H0VZC5 1-426)

[4] = IC50 ^125 I-Gastrin Gastric Glands
[5] = read-out: IC50 ^125 I-CCK Brain
[6] = ^125 I-gastrin, read-out: IC50 ^125 I-Gastrin Gastric Glands
[7] = read-out: IC50 ^125 I-CCK Pancreas

SMILES	IC50 ([1]; IC50 ^125 I-CCK Pancreas)	IC50 ([2]; IC50 ^125 I-CCK Brain)	IC50 [3, 4]	IC50 [2, 5]	IC50 [3, 6]	IC50 [1, 7]
COc1ccc(NC(=O)NC2N=C(c3ccccc3)c3ccccc3N(C)C2=O)cc1 (stereo not drawn) [Example 253, N-(2,3-Dihydro-1-methyl-2-oxo-5-phenyl-1H-1,4-benzodiazepin-3-yl)-N'-(4-methoxvphenyl)-urea]	160 nM	20 nM	45 nM			
CN1C(=O)C(NC(=O)Nc2ccccc2Cl)N=C(c2ccccc2)c2ccccc21 (stereo not drawn) [Example 254, N-(2-Chlorophenyl)-N'-(2,3-dihydro-1-methyl-2-oxo-5-phenyl-1H-1,4-benzodiazepin-3-yl)-urea]	0.9 nM			320 nM	110 nM	
CN1C(=O)C(NC(=O)Nc2ccc(Br)cc2)N=C(c2ccccc2)c2ccccc21 (stereo not drawn) [Example 255]		48 nM	32 nM			130 nM
CN1C(=O)C(NC(=O)Nc2ccc([N+](=O)[O-])cc2)N=C(c2ccccc2)c2ccccc21 (stereo not drawn) [Example 256, N-(4-Nitrophenyl)-N'-(2,3-dihydro-1-methyl-2-oxo-5-phenyl-1H-1,4-benzodiazepin-3-yl)-urea]				46 nM	9.8 nM	210 nM
CN1C(=O)C(NC(=O)Nc2ccc(Cl)c(Cl)c2)N=C(c2ccccc2)c2ccccc21 (stereo not drawn) [Example 257, N-(3,4-Dichlorophenyl)-N'-(2,3-dihydro-1-methyl-2-oxo-5-phenyl-1H-1,4-benzodiazepin-3-yl)-urea]		67 nM	48 nM			26 nM
CN1C(=O)C(NC(=O)Nc2ccc(Cl)cc2Cl)N=C(c2ccccc2)c2ccccc21 (stereo not drawn) [Example 258, N-(2,4-Dichlorophenyl)-N'-(2,3-dihydro-1-methyl-2-oxo-5-phenyl-1H-1,4-benzodiazepin-3-yl)-urea]		220 nM	60 nM			3 nM
CN1C(=O)C(NC(=O)Nc2ccc(F)cc2)N=C(c2ccccc2)c2ccccc21 (stereo not drawn) [Example 259, N-(2,3-Dihydro-1-methyl-2-oxo-5-phenyl-1H-1,4-benzodiazepin-3-yl)-N'-(4-fluorophenyl)-urea]				66 nM	14 nM	46 nM
CN1C(=O)C(NC(=O)NC(C)(C)C)N=C(c2ccccc2)c2ccccc21 (stereo not drawn) [Example 260, N-(2,3-Dihydro-1-methyl-2-oxo-5-phenyl-1H-1,4-benzodiazepin-3-yl)-N'-(1,1-dimethylethyl)-urea]		38000 nM	> 1000 nM			6800 nM
C[C@@H](NC(=O)NC1N=C(c2ccccc2)c2ccccc2N(C)C1=O)c1ccccc1 (stereo partly drawn) [Example 261, N-(2,3-Dihydro-1-methyl-2-oxo-5-phenyl-1H-1,4-benzodiazepin-3-yl)-N'-((R)1-phenylethyl)-urea]	430 nM	11000 nM			3200 nM	
CN1C(=O)C(NC(=O)NC2CCCCC2)N=C(c2ccccc2)c2ccccc21 (stereo not drawn) [Example 262, N-Cyclohexyl-N'-(2,3-dihydro-1-methyl-2-oxo-5-phenyl-1H-1,4-benzodiazepin-3-yl)-urea]		3000 nM	390 nM			2400 nM
CN1C(=O)C(NC(=O)Nc2cccc([N+](=O)[O-])c2)N=C(c2ccccc2)c2ccccc21 (stereo not drawn) [Example 264, N-(2,3-Dihydro-1-methyl-2-oxo-5-phenyl-1H-1,4-benzodiazepin-3-yl)-N'-(3-nitrophenyl)-urea]		11 nM	6 nM			34 nM
CN1C(=O)C(NC(=O)Nc2cccc(Cl)c2)N=C(c2ccccc2)c2ccccc21 (stereo not drawn) [Example 265, N-(3-Chlorophenyl)-N'-(2,3-dihydro-1-methyl-2-oxo-5-phenyl-1H-1,4-benzodiazepin-3-yl)urea]		9.8 nM	3.1 nM			8.2 nM
COc1cccc(NC(=O)N[C@@H]2N=C(c3ccccc3)c3ccccc3N(C)C2=O)c1 [Example 266, (R)-N-(2,3-Dihydro-1-methyl-2-oxo-5-phenyl-1H-1,4-benzodiazepin-3-yl)-N'-(3-methoxyphenyl)-urea]		2.2 nM			1.3 nM	600 nM
